Measured values: publication PMC6113202

Experiments:
[1] = system: Scram (DNA, duplex) GTCGTTCTGATCCAGGTGATGTAGTCGACG/CGTCGACTACATCACCTGGATCAGAACGAC; experiment: fluorescence turn-on; conditions: KCl 150 mM in p53 buffer (80% v/v); NaCl 50 mM in DNA buffer (15% v/v); NaPi pH 7.2, DTT, Tris-HCl, 5% DMSO; room temperature; dye 100 nM
[2] = system: IGF-BP3 (DNA, duplex) CTAGAAAACAAGCCACCAACATGCTTGCATG/CATGCAAGCATGTTGGTGGCTTGTTTTCTAG; experiment: fluorescence turn-on heat map; conditions: KCl 150 mM in p53 buffer (80% v/v); NaCl 50 mM in DNA buffer (15% v/v); 4 μM dye, 250 nM DNA; NaPi pH 7.2, DTT, Tris-HCl, 5% DMSO; room temperature
[3] = system: pDINP1 (DNA, duplex) TTATAGAACTTGGGGGAACATGTTTACCAA/TTGGTAAACATGTTCCCCCAAGTTCTATAA; experiment: fluorescence turn-on heat map; conditions: KCl 150 mM in p53 buffer (80% v/v); NaCl 50 mM in DNA buffer (15% v/v); 4 μM dye, 250 nM DNA; NaPi pH 7.2, DTT, Tris-HCl, 5% DMSO; room temperature
[4] = system: hairpin p21 RE (DNA, hairpin) GAAGAAGACTGGGCATGTCTAAAAAAGACATGCCCAGTCTTCTTC; experiment: fluorescence titration; conditions: KCl 150 mM in p53 buffer (80% v/v), NaCl 50 mM in DNA buffer (15% v/v), per base pair, approximate, NaPi pH 7.2, DTT, Tris-HCl, room temperature, dye 100 nM
[5] = system: RGC (DNA, duplex) CACATGCCTTGCCTGGACTTGCCT/AGGCAAGTCCAGGCAAGGCATGTG; experiment: fluorescent intercalator displacement by p53; conditions: KCl 150 mM in p53 buffer (80% v/v); NaCl 50 mM in DNA buffer (15% v/v); 1 μM DNA, 10 μM dye; dye displaced by p53; NaPi pH 7.2, DTT, Tris-HCl, 5% DMSO
[6] = system: p21 (DNA, duplex) TAGAGGAAGAAGACTGGGCATGTCTGGGCA/TGCCCAGACATGCCCAGTCTTCTTCCTCTA; experiment: fluorescent intercalator displacement by p53; conditions: KCl 150 mM in p53 buffer (80% v/v); NaCl 50 mM in DNA buffer (15% v/v); 1 μM DNA, 10 μM dye; dye displaced by p53; NaPi pH 7.2, DTT, Tris-HCl, 5% DMSO
p53-WT [7] = target: T1, p53-WT (UniProt P04637 94-360); experiment: fluorescent intercalator displacement; AO-R; p53 concentration-dependent; 1 uM DNA, 10 uM dye; 5% DMSO, 80% p53 buffer (25 mM NaPi pH 7.2, 150 mM KCl, 4 mM DTT), 15% DNA buffer (10 mM Tris-HCl pH 8.0, 50 mM NaCl); room temperature (stated for rotor-DNA mixtures); conditions: protein: recombinant; tags: N-terminal His6; chain copies: 4; blunt
p53-WT [8] = target: T1, p53-WT; experiment: fluorescent intercalator displacement; AO-R; almost no displacement; 1 uM DNA, 10 uM dye; 5% DMSO, 80% p53 buffer (25 mM NaPi pH 7.2, 150 mM KCl, 4 mM DTT), 15% DNA buffer (10 mM Tris-HCl pH 8.0, 50 mM NaCl); room temperature (stated for rotor-DNA mixtures); conditions: protein: recombinant; tags: N-terminal His6; chain copies: 4; blunt
p53-WT [9] = target: T1, p53-WT; experiment: fluorescent intercalator displacement; AO-R; strongest displacement of panel; 1 uM DNA, 10 uM dye; 5% DMSO, 80% p53 buffer (25 mM NaPi pH 7.2, 150 mM KCl, 4 mM DTT), 15% DNA buffer (10 mM Tris-HCl pH 8.0, 50 mM NaCl); room temperature (stated for rotor-DNA mixtures); conditions: protein: recombinant; tags: N-terminal His6; chain copies: 4; blunt

T1 sequence (P04637 94-360): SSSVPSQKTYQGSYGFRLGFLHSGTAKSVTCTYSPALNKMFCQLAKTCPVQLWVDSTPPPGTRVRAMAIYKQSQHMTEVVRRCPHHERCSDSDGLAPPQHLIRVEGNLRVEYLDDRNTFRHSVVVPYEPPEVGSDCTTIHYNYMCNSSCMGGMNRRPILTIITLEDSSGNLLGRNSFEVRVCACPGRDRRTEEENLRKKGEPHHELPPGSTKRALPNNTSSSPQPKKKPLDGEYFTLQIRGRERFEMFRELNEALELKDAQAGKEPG

## CN1C(=Cc2cc[n+](C)c3ccccc23)Sc2ccccc21
[1]
  binding: yes

## C[n+]1ccc(/C=C/c2ccc(-n3c4ccc(/C=C/c5cc[n+](C)cc5)cc4c4cc(/C=C/c5cc[n+](C)cc5)ccc43)cc2)cc1
[2]
  binding: yes
[3]
  binding: yes

## C[n+]1ccc(/C=C/c2ccc3c(c2)c2cc(/C=C/c4cc[n+](C)cc4)ccc2n3-c2ccccc2)cc1
[1]
  binding: yes
[2]
  binding: yes
[3]
  binding: yes

## CN(C)c1ccc2cc3ccc(N(C)C)cc3nc2c1
[1]
  binding: yes
[4]
  Kd: 12.5 ± 1.0 µM

## CC[n+]1c(-c2ccccc2)c2cc(N)ccc2c2ccc(N)cc21
[1]
  binding: yes

## CN1C(=Cc2cc[n+](CCCN)c3ccccc23)Sc2ccccc21
[1]
  binding: yes

## CN(C)c1ccc2cc3ccc(N(C)C)c(/C=C(\C#N)C(=O)O)c3nc2c1
[5]
  binding: yes
[1]
  binding: yes
[4]
  Kd: 4.8 ± 0.8 µM
[6]
  binding: yes

B1: p21 RE (dsDNA)
DNA 1: TAGAGGAAGAAGACTGGGCATGTCTGGGCA
DNA 2: TGCCCAGACATGCCCAGTCTTCTTCCTCTA
p53-WT [7]
  binding result: binds

B2: RGC RE (dsDNA)
DNA 1: CACATGCCTTGCCTGGACTTGCCT
DNA 2: AGGCAAGTCCAGGCAAGGCATGTG
p53-WT [7]
  binding result: binds

B3: Scram (dsDNA)
DNA 1: GTCGTTCTGATCCAGGTGATGTAGTCGACG
DNA 2: CGTCGACTACATCACCTGGATCAGAACGAC
p53-WT [8]
  binding result: no binding

B4: Con-A (dsDNA)
DNA 1: GGGCATGTCCGGGCATGTCC
DNA 2: GGACATGCCCGGACATGCCC
p53-WT [9]
  binding result: binds
